Experimental data as given in publication PMC6467533 (Chembiochem : a European journal of chemical biology, 2018).

Target: Mtb TPP (Mycobacterium tuberculosis, UniProt P9WFZ5)
Type: biochemical

Chain of Mtb TPP (P9WFZ5 whole entry, looked up): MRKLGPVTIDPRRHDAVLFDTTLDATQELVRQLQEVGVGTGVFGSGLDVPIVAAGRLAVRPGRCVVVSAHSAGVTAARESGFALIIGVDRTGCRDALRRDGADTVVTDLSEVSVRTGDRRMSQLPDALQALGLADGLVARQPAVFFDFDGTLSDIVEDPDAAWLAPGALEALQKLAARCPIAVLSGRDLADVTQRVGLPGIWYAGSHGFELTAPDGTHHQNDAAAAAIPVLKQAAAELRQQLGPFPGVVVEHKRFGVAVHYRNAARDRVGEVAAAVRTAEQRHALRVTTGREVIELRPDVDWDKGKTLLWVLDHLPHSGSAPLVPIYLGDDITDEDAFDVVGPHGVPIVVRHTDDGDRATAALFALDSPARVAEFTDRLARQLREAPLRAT

For `O=P(O)(O)C[C@H]1O[C@H](O[C@H]2O[C@H](CO)[C@@H](O)[C@H](O)[C@H]2O)[C@H](O)[C@@H](O)[C@@H]1O` [TMP, 6-Deoxy-6-(phosphonic acid)-α,α’-trehalose], the “IC50 fold worse than the determined T6P KM, Mtb TPP” value was 2.8 fold.
